Laboratory results reported in patent publication US20220211663A1, “NANO CO-DELIVERY OF QUERCETIN AND ALANTOLACTONE PROMOTES ANTI-TUMOR RESPONSE THROUGH SYNERGISTIC IMMUNOGENIC CELL DEATH FOR MICROSATELLITE-STABLE COLORECTAL CANCER” (The University of North Carolina at Chapel Hill, priority 2019, published 2022).
pIC50: −log10 of the molar value.

Columns and labels:
[1] = Maximum concentration of free drug in lecithin suspension (sink condition); type: physicochemical; conditions: lecithin suspension 100 mg/mL
Protocol: The release behaviors of Q and A from QA-M were investigated by a dialysis method. The QA-M (2 mL) was placed into a preswelled dialysis bag (cutting Mw 8000), which was then immersed into empty lecithin suspension (PC-98T, 100 mg/mL, 100 mL) at 37° C. for 72 hours under stirring at a speed of 100 rpm. The lecithin suspension was formed by film-hydration method followed by sonication and the size of this lecithin suspension was around 100 nm. Sink condition was confirmed by determination of the maximum concentration for free Q and A in the lecithin suspension, which was 0.5 mg/mL and 0.8 mg/mL, respectively. At different time points, 1.0 mL of sample was withdrawn from the release medium, mixed with methanol and measured for the Q and A using the HPLC method mentioned above. The release medium was replenished with an equal volume of fresh medium at 37° C. Sink condition was maintained throughout the experiment. All measurements were performed in triplicate, and the mean values and standard deviations are calculated.

CT26-FL3 cells [2] = experiment: HMGB1 release by immunofluorescence (ICD); type: cell-based, murine
Protocol: (§1) CT26-FL3 cells were seeded in 35-mm cell culture dishes with glass bottom at the density of 2×10^5 per dish and incubated for 24 h before treatment. The cell culture medium was removed and replenished with different combination of Q and A containing media at the indicated concentrations for 4 h for CRT detection and for 8 h for HMGB1 detection. Cells were fixed and washed 3 times. A primary antibody, anti-CRT antibody (ab2907, 1:500, Abcam), diluted in cold blocking buffer (10% goat serum in PBS), was added for 60 min. After three washes in cold PBS, cells were then incubated for 60 min with the Alexa Fluor® 488 Goat Anti-Rabbit (IgG) (ab150077, 1:500, Abcam) diluted in a cold blocking buffer. Cells were fixed with 4% PFA for 20 min, and DAPI Mounting Medium was added for nuclear staining. For intracellular HMGB1 staining, cells were fixed and washed 3 times. Afterwards, cells were permeabilized with 0.1% Triton X-100 containing blocking buffer for 10 min, and rinsed three times with PBS, and nonspecific binding sites were blocked for 30 min A primary antibody for HMGB1 (ab79823, 1:500, Abcam) was added for 60 min. Cells were then incubated for 60 min with the Alexa Fluor® 488 Goat Anti-Rabbit (IgG) (ab150077, 1:500, Abcam) diluted in a cold blocking buffer. Cells were fixed with 4% PFA for 20 min, and DAPI Mounting Medium was added for nuclear staining. […]

CT26-FL3 cells [3] = experiment: CRT translocation by immunofluorescence (ICD); type: cell-based, murine; conditions: free Q alone 0.07 μM, 4 h
Protocol: as §1

CT26-FL3 cells [4] = experiment: MTT cytotoxicity and combination index (Chou and Talalay); type: cell-based, murine; conditions: Mus musculus, 24 h incubation, read-out: IC50 of Q alone
Protocol: The cytotoxicity of free Q, free A and drugs combination against CT26-FL3 cells were assessed using the MTT (3-[4,5-dimethylthiazol-2-yl]-2,5-diphenyltetrazolium bromide) method. Zhang et al., 2017. Cells were seeded in 96-well plates (5×10^3 cells per well) and incubated for 24 h before treatment. Then the culture medium was withdrawn and fresh medium containing free drugs and drug combination with a series of concentration were added to each well. Following 24-h incubation, cell viability was determined by MTT assay. The synergy of Q and A was evaluated by using the Chou and Talalay method to calculate the combination index (CI). Zhang et al., 2014; Chou et al., 1984. CI was calculated by using the following equation (1): CI=(D)1/(Dx)1+(D)2/(Dx)2 (1) […]

[5] = system: orthotopic CT26-FL3 tumors; experiment: Orthotopic colon tumor growth inhibition and survival; type: in vivo, Balb/c mice; conditions: i.v. four times every other day, Q 3 mg/kg, A 9 mg/kg
Protocol: An orthotopic CT26-FL3 colorectal tumor model was established in female Balb/c mice as reported previously. Song et al., 2018. Twenty-eight tumor-bearing mice were divided into seven random groups: PBS, free Q (Q-F), free A (A-F), combination of free Q and A (QA-F), Q-M, A-M and QA-M. Formulations were intravenously injected to mice once every 2 days by total four injections (i.v.) with a Q dose of 3 mg/kg and A dose of 9 mg/kg. Mice in PBS groups were injected with PBS as control. The tumor burden was detected by intraperitoneal (i.p.) injection of 100 μL of D-luciferin (Pierce™, 20 mg/mL) followed by bioluminescent analysis using an IVIS® Kinetics Optical System (Perkin Elmer, Calif.). The tumor growth and body weight of mice were recorded every 2 days. The increment of tumor volume was calculated as luminescence intensities and normalized to the original value on the first day of measurement (Vt/V0). Body weight of mice in each group was documented. Nine days after the last injection, mice were sacrificed and the tumor, heart, liver, spleen, lung and kidney tissues were removed and used for the present study. Blood samples were collected from the orbital plexus into heparinized tubes and then centrifuged at 5,000 rpm for five minutes to separate the plasma. One portion of tumor, spleen and lymph nodes were collected for flow cytometric analysis. […]

| SMILES | maximum concentration in the lecithin suspension [1] [mg/mL] | HMGB1 release (CT26-FL3 cells [2]; free Q alone 0.33 μM, 8 h) | release of HMGB1 compared to control group (CT26-FL3 cells [2]; single drug: Q 0.33 μM, A 1.3 μM) | CRT translocation (CT26-FL3 cells [3]) | pIC50 (CT26-FL3 cells [4]) | tumor growth [5] |
| --- | --- | --- | --- | --- | --- | --- |
| O=c1c(O)c(-c2ccc(O)c(O)c2)oc2cc(O)cc(O)c12 [Q, quercetin] | 0.5 | minimum or undetectable effect | undetectable release | minimum or undetectable effect | 3.83 |  |
| O=c1c(O)c(-c2ccc(O)c(O)c2)oc2cc(O)cc(O)c12 [Q-F, quercetin] |  |  |  |  |  | very similar to that of QA-F |
